The test system of one data set is A. baumannii. In words: MIC, 96-well CAMHB, 10^5 to 10^2 CFU/mL in 24 hours. The format is cell-based, Acinetobacter baumannii. As to conditions: for MIC: Acinetobacter baumannii. On the procedure:
To determine the MIC of polyamine compounds, the protocol described herein was used.
In brief, a 0.5 McFarland of each bacterial isolate was made. A 0.5 McFarland is a measure of turbidity in a liquid sample that contains approximately 1×10^∧8 CFU/mL. The 0.5 McFarland standard was diluted in cation adjusted Mueller Hinton Broth (CAMHB), and 50 μL of broth were added to a well of a 96-well plate. In addition, 50 μL of CAMHB that contained a desired concentration of antimicrobial were also added to the well for a final volume of 100 μL and a final concentration of approximately 5×10^4 CFU/well (which equated to approximately 5×10^5 CFU/mL). Each well contained a desired amount of polyamine compound in order to experimentally determine the MIC. Each 96-well plate was incubated at 37° C. for 24 hours. The contents of each well were plated on tryptic soy agar (TSA). TSA plates were incubated for 37° C. for 24 hours after which the number of CFU were counted and used to calculate the CFU/mL that remained after exposure to varying concentrations of compound. This procedure was repeated n=8 times for each concentration of antimicrobial.
A 0.5 McFarland of A. baumannii is made. A 0.5 McFarland is a measure of turbidity in a liquid sample that contains approximately 7.5×10^7 CFU/mL. The 0.5 McFarland standard is diluted in CAMHB and 50 μL of broth is added to a well of a 96-well plate. In addition, 50 μL of CAMHB that contains a desired concentration of antimicrobial is added to the well for a final volume of 100 μL and a final concentration of approximately 5×10^4 CFU/well (which equates to approximately 5×10^5 CFU/mL). Each well contains a desired amount of CZ compound in order to experimentally determine the MIC. Each 96-well plate is incubated at 37° C. for 24 hours. The contents of each well is plated on tryptic soy agar (TSA). TSA plates is incubated at 37° C. for 24 hours after which the number of CFUs is counted and used to calculate the CFU/mL that remain after exposure to varying concentrations of compound. This procedure is repeated n=8 times for each concentration of antimicrobial. […]

The subject of another data set is MRSA. The description is as above. To be noted: Staphylococcus aureus, MRSA. The format is cell-based, Staphylococcus aureus. In a few lines:
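Isolates diluted from 0.5 McFarland in CAMHB to ~5×10^5 CFU/mL, exposed to varying polyamine concentrations 24 h at 37 °C. Well contents plated on TSA, incubated 24 h at 37 °C and surviving CFU/mL counted; n=8 per concentration.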

The subject of a further data set is L-929 cells (ATCC CCL-1). In words: Minimal Essential Media (MEM) Elution cytotoxicity test. It is filed as cell-based. In a few lines:
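L-929 cells (ATCC CCL-1) were seeded in multiwell plates and grown to roughly 80% confluence. Test article dilutions (1:2, 1:4, 1:8, 1:16) and control extracts were applied in triplicate and incubated 48±3 hours at 37±1° C. in 5±1% CO2. Wells were scored microscopically for morphological cytotoxicity on a 0–4 scale and averaged; Pass required grade not greater than 2 per USP <87>.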

Values joined by “and” are separate entries in the source; they are usually repeats but may differ in a detail not shown here. Equal values may be shown once. Where a name gives a salt, the structure may show the parent alone. Read-outs that look alike come from different tables or passages of the source. Some results are limits rather than exact numbers.

On to `NCCCNCCCNCc1ccccc1` [CZ-7, benzylnorspermidine], for which the MIC in the data set with A. baumannii (Table 3A c3, read-out: MICs (μg/mL): A. baumannii) was greater than 500 µg/mL; with A. baumannii (Table 4, value in parentheses, read-out: MIC μg/mL (μM) A. baumannii), greater than 2260 µM; in the data set with A. baumannii (Table 4, read-out: MIC μg/mL (μM) A. baumannii) it was greater than 500 µg/mL; in the data set with MRSA (Table 3A c1, read-out: MICs (μg/mL): MRSA (first MRSA column)), greater than 500 µg/mL; in the data set with MRSA (Table 4, value in parentheses, read-out: MIC μg/mL (μM) MRSA), greater than 2260 µM; in the data set with MRSA (Table 4, read-out: MIC μg/mL (μM) MRSA), greater than 500 µg/mL. For the same compound, the MIC in the data set with MRSA (Table 5, read-out: MIC (MRSA)) was greater than 100 µM.
For `NCCCNCCCNCc1cccc(CNCCCNCCCN)c1` [CZ-25, N^1,N^1′-(1,3-phenylenebis(methylene))bis(N3-(3-ammoniopropyl)propane-1,3-diaminium) chloride], the MIC with A. baumannii (read-out: MIC (A. bumannii)) is greater than 100 µM.
Turning to `NCCCNCCCNCc1cc(CNCCCNCCCN)cc(CNCCCNCCCN)c1` [CZ-52, N^1,N^1′,N^1″-(benzene-1,3,5-triyltris(methylene))tris(N^3-(3-aminopropyl)propane-1,3-diamine), hydrochloride salt], the “Results Pass/Fail” value was “Pass (receives a passing score (Pass) if the reactivity grade is not greater than grade 2 or a mild reactivity)” with L-929 cells (ATCC CCL-1) (Table 9A, 3.125 μg/mL); “Fail (a numerical grade greater than 2 is considered a cytotoxic effect, or a failing score (Fail))” with L-929 cells (ATCC CCL-1) (Table 9A, 6.25 μg/mL); “Fail (a numerical grade greater than 2 is considered a cytotoxic effect, or a failing score (Fail))” in the data set on L-929 cells (ATCC CCL-1) (Table 9A, 12.5 μg/mL); “Fail (a numerical grade greater than 2 is considered a cytotoxic effect, or a failing score (Fail))” in the data set with L-929 cells (ATCC CCL-1) (Table 9A, 25 μg/mL); “Pass (receives a passing score (Pass) if the reactivity grade is not greater than grade 2 or a mild reactivity)” in the data set on L-929 cells (ATCC CCL-1) (Table 9A, 1.563 (unit not given)).
Consider `NCCCNCCCNCc1cc(CNCCCNCCCN)cc(-c2ccccc2)c1` [CZ-58, N^1,N^1′-([1,1′-biphenyl]-3,5-diylbis(methylene))bis(N^3-(3-ammoniopropyl)propane-1,3-diaminium) chloride], for which the MIC in the data set on A. baumannii (read-out: MIC (A. bumannii)) fell in the range of 50 to 100 µM. For the same compound, the “Results Pass/Fail” value was “Fail (a numerical grade greater than 2 is considered a cytotoxic effect, or a failing score (Fail))” in the data set on L-929 cells (ATCC CCL-1) (Table 10A, 25 μg/mL); “Fail (a numerical grade greater than 2 is considered a cytotoxic effect, or a failing score (Fail))” in the data set with L-929 cells (ATCC CCL-1) (Table 10A, dilution 1:2 of 25 μg/mL); “Pass (receives a passing score (Pass) if the reactivity grade is not greater than grade 2 or a mild reactivity)” with L-929 cells (ATCC CCL-1) (Table 10A, dilution 1:4 of 25 μg/mL); “Pass (receives a passing score (Pass) if the reactivity grade is not greater than grade 2 or a mild reactivity)” in the data set with L-929 cells (ATCC CCL-1) (Table 10A, dilution 1:8 of 25 μg/mL); “Pass (receives a passing score (Pass) if the reactivity grade is not greater than grade 2 or a mild reactivity)” in the data set on L-929 cells (ATCC CCL-1) (Table 10A, dilution 1:16 of 25 μg/mL).
For the compound `CC(C)CNCCCNCCCNCc1cc(CNCCCNCCCNCC(C)C)cc(-c2ccccc2)c1` [CZ-86, N^1,N^1′-([1,1′-biphenyl]-3,5-diylbis(methylene))bis(N^3-(3-(isobutylamino)propyl)propane-1,3-diamine), hydrochloride salt], the MIC in the data set on A. baumannii (read-out: MIC (A. bumannii)) and in the data set with MRSA (read-out: MIC (MRSA)) was less than 50 µM throughout. The “Results Pass/Fail” value is “Fail (a numerical grade greater than 2 is considered a cytotoxic effect, or a failing score (Fail))” in the data set on L-929 cells (ATCC CCL-1) (Table 8A, 400 μg/mL); “Fail (a numerical grade greater than 2 is considered a cytotoxic effect, or a failing score (Fail))” in the data set with L-929 cells (ATCC CCL-1) (Table 8A, dilution 1:2 of 400 μg/mL); “Fail (a numerical grade greater than 2 is considered a cytotoxic effect, or a failing score (Fail))” in the data set on L-929 cells (ATCC CCL-1) (Table 8A, dilution 1:4 of 400 μg/mL); “Pass (receives a passing score (Pass) if the reactivity grade is not greater than grade 2 or a mild reactivity)” with L-929 cells (ATCC CCL-1) (Table 8A, dilution 1:8 of 400 μg/mL); “Pass (receives a passing score (Pass) if the reactivity grade is not greater than grade 2 or a mild reactivity)” in the data set with L-929 cells (ATCC CCL-1) (Table 8A, dilution 1:16 of 400 μg/mL).
Take `CN[C@H](CC(C)C)C(=O)N[C@H]1C(=O)N[C@@H](CC(N)=O)C(=O)N[C@H]2C(=O)N[C@H]3C(=O)N[C@H](C(=O)N[C@H](C(=O)O)c4cc(O)cc(O)c4-c4cc3ccc4O)[C@H](O)c3ccc(c(Cl)c3)Oc3cc2cc(c3O[C@@H]2O[C@H](CO)[C@@H](O)[C@H](O)[C@H]2O[C@H]2C[C@](C)(N)[C@H](O)[C@H](C)O2)Oc2ccc(cc2Cl)[C@H]1O` [vancomycin, reference compound]: the MIC in the data set on MRSA (read-out: MIC μg/mL (μM) MRSA) was 10 µg/mL and 6.9 µM; with MRSA (read-out: MICs (μg/mL): MRSA (first MRSA column)), 10 µg/mL.
Regarding “Polymyxin B sulfate [reference compound]”, in the data set on A. baumannii (Table 3A c3), the “MICs (μg/mL): A. baumannii” value was 2 µg/mL. Further, the “MIC μg/mL (μM) A. baumannii” value against A. baumannii (Table 4) is 1 µg/mL; with A. baumannii (Table 4, value in parentheses) it was “(0.7) μM”.

The values are drawn from patent publication US10440955B2, “Methods comprising a biocidal polyamine” (Curza Global, LLC, priority 2013, dated 2019).
